Key:
[1] = target: T1, full length LexA from P. aeruginosa (RecA*-mediated cleavage) (Pseudomonas aeruginosa, UniProt P37452); assay: Orthogonal 32P-LexA cleavage assay, full-length P. aeruginosa LexA; type: biochemical
T1 construct: examining RecA^∗-mediated cleavage of full length LexA from P. aeruginosa; made in house
Procedure: (§1) Full-length E. coli and P. aeruginosa LexA were engineered with a RRXS phosphorylation site on the N-terminus of the full-length protein, allowing for ^32P labeling by protein kinase A to produce ^32P-LexA, as described previously ([Mo et al., 2018]). Reactions contained 100 nM ^32P-LexA, 200 nM RecA and 10 μM ATPγS and the buffer conditions were identical to those in the HTS assay. Compounds were added in DMSO and the final concentration was 2%. Reactions were incubated for 30 min at room temperature after which 2 × Laemmli buffer was added to stop the assay. The stopped reactions were subjected to 15% SDS-PAGE and the gels were visualized via phosphorimaging on a Typhoon imager (GE Healthcare Bio-Sciences, Marlborough, MA, United States). The intact and cleaved bands were quantified using Quantity One (Bio-Rad, Hercules, CA, United States) and the fraction inhibited was calculated. […] Plots of fraction inhibited against compound concentration were fitted to Equation 1.

[2] = Cytotoxicity testing with HG2 cells; type: cell-based
[3] = Solubility (inferred from titration curves in assay buffer; DMSO stocks); type: physicochemical; details: FlAsH-LexA cleavage assay buffer, aqueous buffer; suggested by normal titration curves in FlAsH-LexA assay buffer; read-out: aqueous solubility maintained up to
Description: Representative titrations for the compounds can be found in the Supplementary Figure 1.

[4] = target: T2, E. coli FlAsH-LexA (RecA-promoted LexA cleavage) (Escherichia coli, UniProt P0A7C2); assay: biochemical
Procedure: (§6) IC50 values were routinely determined using the E. coli FlAsH-LexA cleavage assay previously used to perform HTS ([Mo et al., 2018]). In this assay RecA-promoted LexA cleavage is monitored using fluorescence polarization. […] Reactions were performed in 384-well plates and components were added as 10 μL additions of ATPγS, ssDNA and RecA, in buffer and 10 μL of E. coli FlAsH-LexA in buffer using a Janus liquid handler (Perkin-Elmer). Compound was added as a DMSO solution using a pin tool, and the final concentration of DMSO in the reaction was 1.2%. Once the reaction components were combined, reactions were centrifuged for 1 min at 500 rpm and incubated for 30 min at room temperature. Reactions were quenched with a 10 μL addition of 50 mM EDTA and plates were read on a Tecan Infinite F200 Pro plate reader (Tecan US, Inc., Morrisville, NC, United States). […] On each plate 32 positive (-RecA) and 32 negative controls (+RecA) in which DMSO without compound was added were used to define the range of mP and calculate the fraction inhibited.
(§7) IC50 values were estimated by non-linear least squares fitting to the data using Equation 1.
(§8) where FI = Fraction inhibited, [I] = Concentration of compound and n = Hill coefficient. Fitting was performed using Igor Pro (WaveMetrics Inc., Lake Oswego, OR, United States).

[5] = target: T2, E. coli FlAsH-LexA (RecA-promoted LexA cleavage); details: for rank order of activities, ortho mono-substitution on area A phenyl: FlAsH-LexA cleavage assay; for activity in FlAsH-LexA cleavage assay (in words): highest concentration 111 μM
Procedure: as §6, §7, §8

[6] = test system: recA promoter GFP reporter (SOS response); assay: Cell-based SOS reporter assay (GFP under recA promoter, ciprofloxacin-induced); set-up: species or system E. coli MG1655 ΔsulA ΔtolC; details: Escherichia coli, 2 h, read-out: IC50, GFP assay
Procedure: An E. coli MG1655 strain lacking sulA (ΔsulA) and the tolC transporter (ΔtolC) ([Mo et al., 2016]) was transformed with a reporter plasmid in which gfp expression was under the control of the recA promoter (pMS201 pRecA GFP) ([Zaslaver et al., 2006]). To perform assays overnight, cultures of the reporter strain were diluted 100-fold in M9 minimal media and grown at 37°C with agitation to an OD595 of ∼0.6. For each reaction sample 100 μL of culture were mixed with 100 μL of M9 minimal media containing ciprofloxacin (256 ng/mL). Pre-diluted compounds were added (5 μL) in DMSO and cultures were incubated at 37°C with agitation for 2 h after which the cells were fixed by adding 200 μL of phosphate buffered saline, pH 7.4 containing 1% paraformaldehyde. After 1 h of fixing, the cells were spun down at 4,000 rpm and re-suspended in phosphate buffered saline, pH 7.4. Fixed cells were analyzed using flow cytometry (BD FACSCalibur, Ex/Em: 488 nm/530 nm) and the mean fluorescence of 20,000 cells in each condition was recorded.

[7] = target: T3, full-length E. coli LexA (RecA*-induced cleavage) (Escherichia coli, UniProt P0A7C2); assay: Orthogonal 32P-LexA cleavage assay, full-length E. coli LexA; type: biochemical
T3 construct: Full-length E. coli and P. aeruginosa LexA were engineered with a RRXS phosphorylation site on the N-terminus of the full-length protein; made in house
Procedure: as §1

[8] = target: T4, LexA-S119A / Cy5-labeled SOS operator DNA (Escherichia coli, UniProt P0A7C2, S119A); assay: Electrophoretic mobility shift assay (EMSA), LexA binding to SOS operator DNA; details: compound vs DMSO
T4 construct: made in house
Procedure: Increasing concentrations (0–1 μM) of LexA-S119A were mixed with 10 nM SOS operator DNA labeled with Cy5 in EMSA running buffer (70 mM Tris-HCl pH 7.5, 10 mM MgCl2, 150 mM NaCl, 5 mM DTT, 0.1 mg/ml BSA, 10 ng/μL ssDNA, 5% glycerol, 0.04% bromophenol blue) in the presence of 50 μM of compound (or DMSO carrier). After incubation at room temperature for 30 min, 20 μL of each reaction was subjected to 6% native PAGE. Gels were visualized on a Typhoon Imager using default fluorescence filter settings for Cy5. Gel bands were quantified using ImageJ (NIH, Bethesda, MD, United States) to determine the fraction of bound DNA at each LexA concentration. Data were fitted to a variable-slope sigmoidal dose-response curve.

ΔtolC E. coli [9] = assay: Frequency of resistance (rifampin-resistance mutation rate); type: cell-based
Procedure: A starter culture of ΔtolC E. coli was cultured overnight at 37°C with shaking in LB broth. The next day the culture was diluted 3 × 10^7-fold in to LB broth. The dilution was used to produce four sets of twelve cultures, each containing 1 mL. To one set was added 10 μL of deionized H2O plus 10 μL of DMSO, to the second set was added 10 μL of 125 ng/mL ciprofloxacin in deionized H2O plus 10 μL of DMSO, to the third set was added 10 μL of deionized H2O plus 10 μL of a 10 mM solution of 14 in DMSO and to the fourth set was added 10 μL of 125 ng/mL ciprofloxacin in deionized H2O plus 10 μL of 14 in DMSO.
The 48 cultures were incubated at 37°C with shaking for 48 h. To determine the population size, spot plating was performed starting with 1 μL of the cultures diluted 10^5-fold. A 100 μL aliquot of each 10^5-fold dilution was transferred to a 96-well plate and serially diluted (10-fold dilutions) into LB broth. The dilutions (5 μL) were spotted on LB agar plates and the plates were incubated overnight at 37°C. To determine the rifampin resistant population, 999 μL of each 1 mL culture was centrifuged at 6000 rpm for 10 min to remove the cells from solution and the cells were suspended in 100 μL of autoclaved 0.15 M NaCl. The 100 μL solutions were plated on the LB plates containing 100 μg/mL rifampin and incubated for 2 days at 37°C. Following counting of the colonies the program bz-rates ([Gillet-Markowska et al., 2015]) was used to estimate mutation rates.

full length E. coli LexA [10] = target: T5, full length E. coli LexA (Escherichia coli, UniProt P0A7C2); assay: Thermal shift assay of LexA; type: binding; details: LexA 5 µM, compound 50 µM; LexA alone Tm 57.4 ± 0.4
T5 construct: a fluorescence-independent assay using a full-length version of E. coli LexA was employed; made in house
Procedure: (§2) Supplementary Figure 2. Binding of 14 to LexA alone. (a) Inhibition of the auto-proteolysis of 32P-labelleled full length E. coli LexA by 14 in the absence of RecA. All data represent the mean of two independent measurements and the error bars represent the range of error. The error of the IC50 value is the standard deviation of the fit of equation 1 to the data. (b) Thermal shift observed upon binding of 14 to full length E. coli LexA. The concentrations of LexA and 14 were 5 µM and 50 µM, respectively. The errors for the Tm values are the standard deviations of the fits of equation S1 to the data.
(§3) Cy5-labeled operator DNA Bound DNA
(§4) Supplementary Figure 3. LexA DNA binding activity is not impacted by 14. Varying concentrations of […]
(§5) (SOS box). The titrations were performed in the presence of DMSO or 40 μM of 14. The samples were separated on a non-denaturing polyacrylamide gel (at right) and the bound fraction calculated. […]

full length E. coli LexA [11] = target: T5, full length E. coli LexA; assay: Auto-proteolysis of 32P-labelled full length E. coli LexA in the absence of RecA; type: biochemical
Procedure: as §2, §3, §4, §5

ΔtolC E. coli [12] = assay: MIC of ciprofloxacin; type: cell-based; details: Escherichia coli

T2 sequence (P0A7G6 2-353): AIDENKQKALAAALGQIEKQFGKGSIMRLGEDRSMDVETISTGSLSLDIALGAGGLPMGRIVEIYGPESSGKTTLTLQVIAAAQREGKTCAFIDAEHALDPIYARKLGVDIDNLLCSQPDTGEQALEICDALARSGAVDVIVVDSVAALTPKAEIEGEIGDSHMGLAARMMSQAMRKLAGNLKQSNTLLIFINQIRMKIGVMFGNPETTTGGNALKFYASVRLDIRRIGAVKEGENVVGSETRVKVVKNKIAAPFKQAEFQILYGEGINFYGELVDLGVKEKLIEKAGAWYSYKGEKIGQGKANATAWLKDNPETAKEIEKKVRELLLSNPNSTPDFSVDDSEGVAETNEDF
T2 sequence (P0A7C2 75-202): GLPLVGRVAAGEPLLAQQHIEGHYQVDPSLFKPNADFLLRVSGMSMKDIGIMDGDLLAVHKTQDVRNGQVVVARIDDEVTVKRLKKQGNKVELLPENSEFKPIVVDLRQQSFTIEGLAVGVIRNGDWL
T1 sequence (P37452 whole entry): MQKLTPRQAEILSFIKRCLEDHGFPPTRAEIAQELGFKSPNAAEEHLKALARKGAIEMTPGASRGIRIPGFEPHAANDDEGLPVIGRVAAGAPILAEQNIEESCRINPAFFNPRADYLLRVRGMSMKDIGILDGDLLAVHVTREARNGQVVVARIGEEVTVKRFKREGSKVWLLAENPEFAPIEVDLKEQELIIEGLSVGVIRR
T5 sequence (P0A7C2 whole entry): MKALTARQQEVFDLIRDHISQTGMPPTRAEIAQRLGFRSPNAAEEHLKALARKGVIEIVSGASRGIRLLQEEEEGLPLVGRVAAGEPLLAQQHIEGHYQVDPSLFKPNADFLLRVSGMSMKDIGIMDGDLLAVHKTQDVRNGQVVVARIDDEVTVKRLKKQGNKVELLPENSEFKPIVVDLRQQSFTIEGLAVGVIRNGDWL
T4 sequence (P0A7C2 whole entry S119A): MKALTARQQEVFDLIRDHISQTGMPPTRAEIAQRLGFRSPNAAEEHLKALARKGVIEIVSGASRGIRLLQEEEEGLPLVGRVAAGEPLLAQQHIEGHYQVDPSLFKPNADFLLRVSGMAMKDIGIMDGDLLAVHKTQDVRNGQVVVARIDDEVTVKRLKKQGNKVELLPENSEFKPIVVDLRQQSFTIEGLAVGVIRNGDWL
T3 sequence (P0A7C2 whole entry): as the sequence (P0A7C2 whole entry) above

Compound	solubility [3] [µM]	IC50 [4] [µM]	activity in FlAsH-LexA cleavage assay (in words) [5]	also measured
CCOc1ccc(NC(=O)Cn2nnc(C(=O)Nc3ccc(C)c(C)c3)c2N)cc1 [Compound 1]	≥ 111	32 ± 6	–	IC50 [1]: 130 ± 28 µM; CC50 [2]: 277 µM
Cc1ccc(NC(=O)c2nnn(CC(=O)Nc3ccccc3)c2N)cc1C [Compound 2]	–	> 100	loss of activity	rank order of activities, ortho mono-substitution on area A phenyl [5]: Me (5) > Et (22) > OMe (23) > OEt (24) = H (2)
Cc1ccc(NC(=O)c2nnn(CC(=O)NC3CCCCC3)c2N)cc1C [Compound 3]	≥ 111	44 ± 4	returned activity	–
Cc1ccc(NC(=O)c2nnn(CC(=O)NC3CCCCCC3)c2N)cc1C [Compound 4]	≥ 111	22 ± 3	returned activity	–
Cc1ccc(NC(=O)c2nnn(CC(=O)Nc3ccccc3C)c2N)cc1C [Compound 5]	≥ 111	17 ± 2	–	rank order of activities, ortho mono-substitution on area A phenyl [5]: Me (5) > Et (22) > OMe (23) > OEt (24) = H (2)
Cc1cccc(NC(=O)Cn2nnc(C(=O)Nc3ccc(C)c(C)c3)c2N)c1 [Compound 6]	–	> 100	not tolerated	–
Cc1ccc(NC(=O)Cn2nnc(C(=O)Nc3ccc(C)c(C)c3)c2N)cc1 [Compound 7]	≥ 111	18 ± 1	–	–
Cc1ccc(NC(=O)Cn2nnc(C(=O)Nc3ccc(C)c(C)c3)c2N)c(C)c1 [Compound 8]	≥ 111	15 ± 2	tolerated but not significantly superior to ortho-substitution alone	–
CCOc1ccc(NC(=O)Cn2nnc(C(=O)Nc3ccccc3C)c2N)cc1 [Compound 9]	–	> 100	not tolerated	–
CCOc1ccc(NC(=O)Cn2nnc(C(=O)Nc3cccc(C)c3)c2N)cc1 [Compound 10]	≥ 111	33 ± 4	allowed	–
CCOc1ccc(NC(=O)Cn2nnc(C(=O)Nc3ccc(C)cc3)c2N)cc1 [Compound 11]	≥ 111	15 ± 2	allowed	–
CCOC(=O)c1ccc(NC(=O)c2nnn(CC(=O)Nc3ccc(OCC)cc3)c2N)cc1 [Compound 12]	≥ 111	19 ± 3	tolerated	–
CCOc1ccc(NC(=O)Cn2nnc(C(=O)Nc3cccnc3)c2N)cc1 [Compound 13]	≥ 111	40 ± 3	tolerated	–
CCOc1ccc(NC(=O)Cn2nnc(C(=O)Nc3ccccc3)c2N)cc1 [Compound 14, 5-amino-1-{2-[(4-ethoxyphenyl)amino]-2-oxoethyl}-N-phenyl-1H-1,2,3-triazole-4-carboxamide]	≥ 111	9 ± 1	–	IC50 [6]: 32 ± 2 µM; IC50 [1]: 5.9 ± 0.4 µM; IC50 [7]: 10 ± 1 µM; CC50 [2]: > 500 µM; effect on LexA DNA binding (EMSA) [8]: not impacted; suppression of ciprofloxacin-induced appearance of resistance to rifampicin (ΔtolC E. coli [9]; 100 μM compound): effective in reducing the appearance of resistance to rifampicin; decrease in per generation mutation rate relative to ciprofloxacin alone (ΔtolC E. coli [9]; 100 μM compound + ciprofloxacin 1.25 ng/mL, rifampin resistance, 48 h): approximately threefold; mutation rate, compound alone (ΔtolC E. coli [9]; 100 μM compound, no ciprofloxacin): comparable to DMSO alone controls; Tm (full length E. coli LexA [10]): 67.0 ± 0.1 °C; IC50 (full length E. coli LexA [11]): 15.2 ± 2.5 µM
O=C(O)c1cn(C2CC2)c2cc(N3CCNCC3)c(F)cc2c1=O [ciprofloxacin, reference compound]	–	–	–	mutation rate, ciprofloxacin alone (ΔtolC E. coli [9]; sub-MIC concentration 1.25 ng/mL): produced an induction of mutagenesis; MIC (ΔtolC E. coli [12]): 5 ng/mL

From PMC6305444, “Advancement of the 5-Amino-1-(Carbamoylmethyl)-1H-1,2,3-Triazole-4-Carboxamide Scaffold to Disarm the Bacterial SOS Response” (Frontiers in Microbiology, 2018)
